Assay results taken from patent US4925855A, “Imidazole derivatives and antimycotics containing them” (CL Pharma Aktiengesellschaft, priority 1986, dated 1990).
Converted amounts (≈) assume the structure as drawn. Read-outs that look alike come from different tables or passages of the source.

How the values were obtained:
[1] = system: Aspergillus fumigatus; experiment: MIC in serial dilution test, Aspergillus fumigatus; assay type: cell-based
Protocol: (§1) The antimycotic activities of the compounds were measured by in vitro determination of the minimum inhibitory concentration (MIC) for yeasts, molds and dermatophytes.
(§2) 6 dermatophytes, 2 yeasts and 4 molds were used for testing with fungi, as follows:
Aspergillus fumigatus (Asp.fu.)
(§3) The minimum inhibitory concentration (MIC) was determined in serial dilution tests in test tubes. The volume of the liquid nutrient medium in each test tube was 4.5 ml.
(§4) The substances were dissolved in DMSO and diluted with sterile distilled water to 10 concentrations (100, 50, 25, 12.5, 6.25, 3.12, 1.56, 0.78, 0.39 and 0.19 μg/ml). 0.5 ml of each of these dilution steps was added to the liquid nutrient medium. Thus, a constant concentration of solvent in all the nutrient media was ensured, irrespective of the active compound concentration.
(§5) A comparison solution which contained only the solvent in appropriate concentration was included when carrying out each of the tests.
(§6) The individual strains were maintained on Sabouraud/beerwort agar slants and, before they were used in a test, they underwent a passage on a modified Sabouraud liquid nutrient medium. The strains were then harvested, washed and converted into a suspension of McFaerland 3 in the case of yeasts and molds and of McFaerland 4-5 in the case of dermatophytes.
(§7) The amount of material inoculated (inoculum) was 100 μl/test tube (inoculated densities: yeasts […] of the liquid nutrient medium was 6.0. After inoculation had taken place the fungi were incubated at 22° C. for 14 days.
(§8) The MIC was then determined. The concentration step at which growth was no longer visible on macroscopic inspection was used for the determination of the MIC. The comparison substance used was 1-(2-(2,4-dichlorophenyl)-2-(2,4-dichlorophenylmethoxy)ethyl)-1H-imidazoleas nitrate (compound A).

[2] = Determination of the lethal dose in mice, single oral administration; assay type: in vivo; conditions: for LD100: oral, administration once
Protocol: (§9) Determination of the lethal dose of 1-(2-(2,4-dichlorophenyl)-2-(3-(4-chlorophenylthio)propylamino)ethyl)-1H-imidazole dihydrochloride (compound No. 19) in mice and rats on administration once.
(§10) In each case, oral doses of 0, 500, 1,000 and 3,000 mg/kg of body weight were administered to four groups of female and male animals.

[3] = Determination of the LD50 in rats by i.v. administration; assay type: in vivo; conditions: 12.5-100 mg/kg
Protocol: (§11) Determination of the LD50 of 1-(2-(2,4-di-chlorophenyl)-2-(3-(4-chlorophenylthio)propylamino)-ethyl)-1H-imidazole dihydrochloride (compound No. 19) in mice and rats by i.v. administration. In each case, 0 (0.9% NaCl solution), 12.5, 25.0, 50.0 and 100 mg/kg of body weight were injected i.v. into 5 groups of female and male animals.

[4] = Determination of the LD50 in mice by i.v. administration; assay type: in vivo; conditions: 12.5-100 mg/kg
Protocol: as §11

[5] = system: Salmonella typhimurium strains TA 1535, TA 1537, TA 1538, TA 98 and TA 100; experiment: Potential to cause gene mutations in Salmonella typhimurium; assay type: cell-based; conditions: with or without metabolic activator (S 9 mix); 10-1,000 and 3.3-333.3 μg/plate
Protocol: Compound No. 19 was investigated for its potential to cause gene mutations in five Salmonella typhimurium strains TA 1535, TA 1537, TA 1538, TA 98 and TA 100.
The following concentrations were tested, both with metabolic activator (S 9 mix) and without metabolic activator.

[6] = Determination of the lethal dose in rats, single oral administration; assay type: in vivo; conditions: for LD100: oral, administration once
Protocol: as §9, §10

[7] = system: Candida tropicalis; experiment: MIC in serial dilution test, Candida tropicalis; assay type: cell-based; conditions: 336 h
Protocol: as §1, §2
Candida tropicalis (C.trop.)
as §3, §4, §5, §6, §7, §8

[8] = system: Microsporum gypseum; experiment: MIC in serial dilution test, Microsporum gypseum; assay type: cell-based; conditions: Nannizzia gypsea, 336 h
Protocol: as §1, §2
Microsporum gypseum (Mi.gyp.)
as §3, §4, §5, §6, §7, §8

[9] = system: Candida albicans; experiment: MIC in serial dilution test, Candida albicans; assay type: cell-based; conditions: 336 h
Protocol: as §1, §2
Candida albicans (C.alb.)
as §3, §4, §5, §6, §7, §8

[10] = system: Microsporum canis; experiment: MIC in serial dilution test, Microsporum canis; assay type: cell-based; conditions: 336 h, pH 6, Microsporum canis, pH 6.0, 22° C., 14 days, read-out: MIC values, Mi. can
Protocol: as §1, §2
Microsporum canis (Mi.can.)
as §3, §4, §5, §6, §7, §8

[11] = system: Mucor mucedo plus; experiment: MIC in serial dilution test, Mucor mucedo plus; assay type: cell-based; conditions: 336 h, pH 6, Mucor mucedo plus, pH 6.0, 22° C., 14 days, read-out: MIC values, Mu. mu+
Protocol: as §1, §2
Mucor mucedo plus (Mu.mu^+)
as §3, §4, §5, §6, §7, §8

[12] = system: Trichophyton verrucosum; experiment: MIC in serial dilution test, Trichophyton verrucosum; assay type: cell-based; conditions: 336 h, pH 6, Trichophyton verrucosum, pH 6.0, 22° C., 14 days, read-out: MIC values, Tri. ve.
Protocol: as §1, §2
Trichophyton verrucosum (Tri.ve.)
as §3, §4, §5, §6, §7, §8

[13] = system: Mucor mucedo minus; experiment: MIC in serial dilution test, Mucor mucedo minus; assay type: cell-based; conditions: 336 h, pH 6, Mucor mucedo minus, pH 6.0, 22° C., 14 days, read-out: MIC values, Mu. mu-
Protocol: as §1, §2
Mucor mucedo minus (Mu.mu^-)
as §3, §4, §5, §6, §7, §8

[14] = system: Epidermophyton floccosum; experiment: MIC in serial dilution test, Epidermophyton floccosum; assay type: cell-based; conditions: 336 h, pH 6, Epidermophyton floccosum, pH 6.0, 22° C., 14 days, read-out: MIC values, Ep. flo
Protocol: as §1, §2
Epidermophyton floccosum
as §3, §4, §5, §6, §7, §8

[15] = system: Trichophyton mentagrophytes; experiment: MIC in serial dilution test, Trichophyton mentagrophytes; assay type: cell-based; conditions: 336 h, pH 6, Trichophyton mentagrophytes, pH 6.0, 22° C., 14 days, read-out: MIC values, Tri. me.
Protocol: as §1, §2
Trichophyton mentagrophytes
as §3, §4, §5, §6, §7, §8

[16] = system: Trichophyton rubrum; experiment: MIC in serial dilution test, Trichophyton rubrum; assay type: cell-based; conditions: 336 h, pH 6, Trichophyton rubrum, pH 6.0, 22° C., 14 days, read-out: MIC values, Tri. ru.
Protocol: as §1, §2
Trichophyton rubrum (Tri.ru.)
as §3, §4, §5, §6, §7, §8

[17] = system: Absidia ramosa; experiment: MIC in serial dilution test, Absidia ramosa; assay type: cell-based; conditions: Lichtheimia ramosa, 336 h, pH 6, Absidia ramosa; pH 6.0, 22° C., 14 days; read-out: MIC values, Abs. ra.
Protocol: as §1, §2
Absidia ramosa (Abs.ra.)
as §3, §4, §5, §6, §7, §8

[18] = oral, 500, 1,000 and 3,000 mg/kg
[19] = pH 6, Candida tropicalis, pH 6.0, 22° C., 14 days, read-out: MIC values, C. trop

Clc1ccc(C(Cn2ccnc2)NCCCSc2ccccc2)c(Cl)c1 (centres unmarked) [compound 16]
MIC values, Asp. fu. ([1]; 20160 min, pH 6): 3,12 μg/ml

Cl.Cl.Clc1ccc(SCCCNC(Cn2ccnc2)c2ccc(Cl)cc2Cl)cc1 (centres unmarked) [Compound No. 19, 1-(2-(2,4-dichlorophenyl)-2-(3-(4-chlorophenylthio)propylamino)ethyl)-1H-imidazole dihydrochloride]
MIC values, Asp. fu. ([1]; 20160 min, pH 6): 0,78 μg/ml
LD100 ([2]; female): > 1,000 mg/kg
LD100 ([2]; male): > 500 mg/kg
clinical signs [2, 18]: Inactivity, convulsions
clinical signs [3]: Inactivity, necrotic tail, convulsions
clinical signs [4]: Inactivity, necrotic tail
mutagenic activity [5]: No mutagenic activity whatever was observed
LD100 ([6]; female): > 500 mg/kg
LD100 ([6]; male): > 1,000 mg/kg
clinical signs [6, 18]: Inactivity, ruffled fur, convulsions

Clc1ccc(COC(Cn2ccnc2)c2ccc(Cl)cc2Cl)c(Cl)c1 (centres unmarked) [A, 1-(2-(2,4-dichlorophenyl)-2-(2,4-dichlorophenylmethoxy)ethyl)-1H-imidazole, reference compound]
MIC values, Asp. fu. ([1]; Aspergillus fumigatus, pH 6.0, 22° C., 14 days): 3,12 μg/ml
MIC ([7]; pH 6, read-out: MIC values, C. trop): 12.5 µg/mL (≈ 30 µM)
MIC ([8]; pH 6, read-out: MIC values, Mi. gyp): 3.12 µg/mL (≈ 7.5 µM)
MIC ([9]; pH 6, read-out: MIC values, C. alb): 12.5 µg/mL (≈ 30 µM)

Clc1ccc(C(Cn2ccnc2)NCCCSc2ccc(Br)cc2)c(Cl)c1 (centres unmarked) [compound 23, 1-(2-(2,4-dichlorophenyl)-2-(3-(4-bromophenylthio)propylamino)ethyl)-1H-imidazole]
MIC values, Asp. fu. ([1]; 20160 min, pH 6): 1,56 μg/ml
MIC [7, 19]: 1.56 µg/mL (≈ 3.21 µM)
MIC [10]: 1.56 µg/mL (≈ 3.21 µM)

Clc1ccc(C(Cn2ccnc2)NCCCSc2c(Cl)cccc2Cl)c(Cl)c1 (centres unmarked) [compound 26]
MIC values, Asp. fu. ([1]; 20160 min, pH 6): 12,5 μg/ml

Cc1ccc(SCCCNC(Cn2ccnc2)c2ccc(Cl)cc2Cl)cc1 (centres unmarked) [compound 17]
MIC values, Asp. fu. ([1]; 20160 min, pH 6): 0,78 μg/ml

Clc1ccc(SCCNC(Cn2ccnc2)c2ccc(Cl)cc2Cl)cc1 (centres unmarked) [compound 3]
MIC values, Asp. fu. ([1]; 20160 min, pH 6): 6,25 μg/ml

Clc1ccc(SCCNC(Cn2ccnc2)c2ccc(-c3ccccc3)cc2)cc1 (centres unmarked) [compound 14]
MIC values, Asp. fu. ([1]; 20160 min, pH 6): 3,12 μg/ml
MIC [11]: 6.25 µg/mL
MIC [12]: 0.78 µg/mL (≈ 1.8 µM)
MIC [13]: 6.25 µg/mL (≈ 14.4 µM)
MIC [7, 19]: 12.5 µg/mL (≈ 28.8 µM)
MIC [14]: 0.78 µg/mL (≈ 1.8 µM)
MIC ([8]; Microsporum gypseum, pH 6.0, 22° C., 14 days, read-out: MIC values, Mi. gyp): 3.12 µg/mL (≈ 7.19 µM)
MIC [15]: 0.78 µg/mL (≈ 1.8 µM)
MIC ([9]; pH 6.0, 22° C., 14 days, read-out: MIC values, C. alb): 12.5 µg/mL (≈ 28.8 µM)
MIC [16]: 1.56 µg/mL (≈ 3.59 µM)
MIC [17]: 50 µg/mL (≈ 115 µM)
MIC [10]: 6.25 µg/mL (≈ 14.4 µM)

Clc1ccc(SCCCCCNC(Cn2ccnc2)c2ccc(Cl)cc2Cl)cc1 (centres unmarked) [compound 38]
MIC values, Asp. fu. ([1]; 20160 min, pH 6): 6,25 μg/ml

CN(CCCSCc1ccc(Cl)cc1)C(Cn1ccnc1)c1ccc(Cl)cc1Cl (centres unmarked) [compound 36, 1-(2-(2,4-Dichlorophenyl)-2-(N-methyl-3-(4-chlorobenzylthio)propylamino)ethyl)-1H-imidazole]
MIC values, Asp. fu. ([1]; 20160 min, pH 6): 25,0 μg/ml
